The text below walks through data of patent publication US10322187B2, “Reduced toxicity molecular conjugates of anti-fungal agents” (Lehigh University, priority 2015, dated 2019).

In brackets after ≈: the same amount, converted by molar mass.

One data set deals with sheep red blood cells. Put plainly: Hemolysis measurements, release of hemoglobin. It is filed as cell-based. The protocol: Sheep Red Blood Cells, 10%, in saline (Innovative Research, Novi, Mich.), were diluted in saline (pH 7.4) to a concentration of 4%, which corresponds to 4×10^7 cells/mL. All measurements were carried out in duplicate. Solutions of Amphotericin B (Sigma-Aldrich) were prepared by adding 10 μL of a DMSO solution containing a given concentration of the antibiotic (i.e., ranging from 0.2 mM to 50 mM) to 490 μL of PBS. After the resulting solution was vortex mixed for 30 seconds (s) it was incubated at 37° C. for 15 min. The resulting solution of antibiotic (500 μL) was then mixed with 500 μL of the 4% erythrocyte dispersion at 37° C. in a 1 mL plastic centrifuge vial to give a dispersion that was vortex mixed at slow rate for 5 s. After 1 h of incubation at 37° C., all samples were centrifuged (1500 g, Eppendorf centrifuge 5415C, 5000 rpm) at rt for 5 min. The supernatant (˜0.7 mL) from each plastic vial was carefully separated from sediment using a disposable glass pipette and quickly transferred to test tube. A volume of 50 μL of this supernatant was then transferred to a UV cell containing 500 μL of PBS that was maintained at 37° C. The UV spectrum was then scanned (450-650 nm) and the absorbance at 575 nm used to determine the extent of hemolysis. The extent of 0% and 100% of hemolysis was obtained from A575 values of experiments that were run in absence of AmphB (control, [A575,]o) and in presence, 100 μM AmphB ([A575]max), respectively.

For another data set, the system named is C. gatti. Put plainly: Antifungal activities, MIC/MFC. It is filed as cell-based. The settings on record: C. gatti; for MFC / MIC: second Table 4 (Example 4). The protocol:
(§1) A similar sequence of reactions was carried out using lysine dicholamide in place of cholic acid afforded VJ-1147 of Table 2. To assess the antifungal properties of the diwalled VJ-1138 (Table 2) and 2a of Table 3, their in vitro activities were examined against four clinically relevant microbes, i.e., C. albicans, C. glabrata, C. neoformans, and C. gatti (Table 4).
(§2) Minimum inhibitory concentrations (MIC) and minimum fungicidal concentrations (MFC) are the lowest concentrations that are required for completely inhibiting growth, and killing at least 99% of the fungi, respectively.
(§3) The above molecules were tested for antifungal activity. Minimum inhibitory concentrations (MIC) and minimum fungicidal concentrations (MFC) are the lowest concentrations that are required for completely inhibiting growth, and killing at least 99% of the fungi, respectively. As is apparent from Table 4 below, there is a general trend; i.e., increased antifungal activity is observed as the length of the hydrocarbon chain that separates the facial amphiphile from the Amphotericin B moiety is decreased.

Another data set deals with C. glabrata. Put plainly: Antifungal activities, MIC/MFC. It counts as cell-based. The settings on record: C. glabrata; for MIC: second Table 4 (Example 4). The protocol: as §1, §2, §3
The test system of another data set is C. albicans. Nature of the data set: Antifungal activities, MIC/MFC. The conditions noted are these: C. albicans. It is filed as cell-based. The protocol: as §1, §2, §3
The test system of the next data set is C. neoformans. Nature of the data set: Antifungal activities, MIC/MFC. It is filed as cell-based. The conditions noted are these: C. neoformans; for MFC / MIC: second Table 4 (Example 4). The protocol:
as §1, §2, §3

The subject of the next data set is HEK293T cells. Put plainly: Inhibition of cell growth, MTT cell viability. It is filed as cell-based, human. The conditions noted are these: varying concentrations; FIG. 11. The protocol: Human embryonic kidney HEK293 cells were cultured in Dulbecco's modified Eagle's medium (DMEM supplemented with 10% FBS, 100 U/mL penicillin, and 0.1 mg/mL SI-10 streptomycin) in a humidified atmosphere of 5% CO2 at 37° C.
HEK293T cells were seeded in 96-well plates at a density of 6,000 cells/well and incubated overnight. Before treatment, compounds aliquots were solubilized in DMSO to obtain 10 mM stock solutions. Appropriate volumes of these stock solutions were added to DMEM media so the final concentration of DMSO is equal to 1%. After removal of cell media, 50 μL of treatment solutions were added to each well and incubated at 37° C. for 2 h. After treatment, the media was removed, and 100 μL of complete medium was added to each well before returning the plate to the incubator. Cell viability was determined after 72 h using the colorimetric MTT assay. Briefly, 10 μL of a 5 mg/mL MTT stock solution was added to the treated cells and incubated for 2 h at 37° C. The resulting formazan crystals were solubilized in 200 μL of DMSO, and the absorbance was measured at 580 nm using an Infinite 200 PRO microplate reader (Tecan). Cell viability was calculated against control cells treated with the vehicle in DMEM.

Another data set deals with Cryptococcus neoformans. Put plainly: Cryptococcosis mouse model, brain and lung tissue burden. It counts as in vivo, mice. The settings on record: after intravenous administration. The protocol:
Cryptococcosis mice are infected via tail vein injection of 5×10^4 C. neoformans cells. Inocula are verified by quantitative culture. Animals are identified by temporary ink marking, assigned to groups of 10 mice. Test compounds will be dosed starting on the day of infection. Initial studies will employ i.v., i.p. or oral (gavage) dosing (depending on the compound and the vehicle). Antifungal compounds are given for a period of 7 days. […] On day 8, the lung and brain are evaluated by quantitative culture per gram of tissue, by weighing organs and culturing serially diluted homogenates. These tissue burden studies permit detection of drug efficacy that may not be evident by using a survival endpoint.
The mice were then sacrificed 7 days later for quantitative culture of brain and lung, with cryptococcal cells per gram tissue being expressed as logarithmic values (log 10). Mean values for each group were compared using the t-test.

Setting [1] is: at concentrations as high as 400 μM, 37° C. in PBS, pH 7.4.
Where [2] appears, read: summary, no concentration stated.

The term MFC denotes the lowest tested concentration that kills the fungus rather than only halting it. By MIC is commonly meant the lowest concentration that inhibits growth of the organism. Consider `CC1OC(O[C@H]2/C=C/C=C/C=C/C=C/C=C/C=C/C=C/[C@H](C)[C@@H](O)[C@@H](C)[C@H](C)OC(=O)C[C@H](O)C[C@H](O)CC[C@@H](O)[C@H](O)C[C@H](O)C[C@]3(O)C[C@H](O)[C@@H](C(=O)NCCCCCCCCNC(=O)CC[C@@H](C)C4CCC5C6C(O)CC7CC(O)CCC7(C)C6CC(O)C54C)[C@H](C2)O3)C(O)C(N)C1O` (stereo partly shown) [YYM-69], for which the figures for the hemolytic activity result in the data set on sheep red blood cells (setting [1]) and with sheep red blood cells (setting [2]) were “negligible hemolytic activities” and “negligible hemolytic activity”, respectively. In addition, the MFC in the data set on C. gatti, in the data set on C. albicans (second Table 4 (Example 4)) and against C. neoformans was 2 µg/mL (≈ 1.39 µM) in each case. Also, the MIC against C. gatti is 1 µg/mL (≈ 0.694 µM); against C. glabrata, >16/— μg/mL; in the data set on C. albicans (second Table 4 (Example 4)), 2 µg/mL (≈ 1.39 µM); against C. neoformans, 1 µg/mL (≈ 0.694 µM). The “toxicity towards HEK293 cells” value in the data set on HEK293T cells is “negligible cytotoxicity”.

Turning to `CC1OC(O[C@H]2/C=C/C=C/C=C/C=C/C=C/C=C/C=C/[C@H](C)[C@@H](O)[C@@H](C)[C@H](C)OC(=O)C[C@H](O)C[C@H](O)CC[C@@H](O)[C@H](O)C[C@H](O)C[C@]3(O)C[C@H](O)[C@@H](C(=O)NCCCCCCCCCCNC(=O)CC[C@@H](C)C4CCC5C6C(O)CC7CC(O)CCC7(C)C6CC(O)C54C)[C@H](C2)O3)C(O)C(N)C1O` (stereo partly shown) [YYM-71], the hemolytic activity result in the data set with sheep red blood cells (setting [1]) was “negligible hemolytic activities”; with sheep red blood cells (setting [2]) it was “negligible hemolytic activity”. For the same compound, the MFC with C. gatti and in the data set on C. neoformans was over 16 µg/mL each time. In addition, the MIC in the data set with C. gatti was 1 µg/mL (≈ 0.681 µM); against C. glabrata, >16/— μg/mL; against C. albicans (second Table 4 (Example 4)) it was >16/— μg/mL; in the data set with C. neoformans it was 2 µg/mL (≈ 1.36 µM). In the data set on HEK293T cells, the “toxicity towards HEK293 cells” value is given as “negligible cytotoxicity”.

In the case of `CC1OC(O[C@H]2/C=C/C=C/C=C/C=C/C=C/C=C/C=C/[C@H](C)[C@@H](O)[C@@H](C)[C@H](C)OC(=O)C[C@H](O)C[C@H](O)CC[C@@H](O)[C@H](O)C[C@H](O)C[C@]3(O)C[C@H](O)[C@@H](C(=O)NCCCCCCNC(=O)CC[C@@H](C)C4CCC5C6C(O)CC7CC(O)CCC7(C)C6CC(O)C54C)[C@H](C2)O3)C(O)C(N)C1O` (stereo partly shown) [YYM-72], the hemolytic activity entry in the data set with sheep red blood cells (up to concentrations of 500 μM, 37° C. in PBS, pH 7.4) is recorded as “negligible hemolytic activity”.

Take `CC1OC(O[C@H]2/C=C/C=C/C=C/C=C/C=C/C=C/C=C/[C@H](C)[C@@H](O)[C@@H](C)[C@H](C)OC(=O)C[C@H](O)C[C@H](O)CC[C@@H](O)[C@H](O)C[C@H](O)C[C@]3(O)C[C@H](O)[C@@H](C(=O)NCCSSCCC(=O)N(CCCCNC(=O)C(CCCCNC(=O)CC[C@@H](C)C4CCC5C6C(OS(=O)(=O)[O-])CC7CC(OS(=O)(=O)[O-])CCC7(C)C6CC(OS(=O)(=O)[O-])C54C)NC(=O)CC[C@@H](C)C4CCC5C6C(OS(=O)(=O)[O-])CC7CC(OS(=O)(=O)[O-])CCC7(C)C6CC(OS(=O)(=O)[O-])C54C)CCCNC(=O)C(CCCCNC(=O)CC[C@@H](C)C4CCC5C6C(OS(=O)(=O)[O-])CC7CC(OS(=O)(=O)[O-])CCC7(C)C6CC(OS(=O)(=O)[O-])C54C)NC(=O)CC[C@@H](C)C4CCC5C6C(OS(=O)(=O)[O-])CC7CC(OS(=O)(=O)[O-])CCC7(C)C6CC(OS(=O)(=O)[O-])C54C)[C@H](C2)O3)C(O)C(N)C1O.[Na+].[Na+].[Na+].[Na+].[Na+].[Na+].[Na+].[Na+].[Na+].[Na+].[Na+].[Na+]` (stereo partly shown) [compound 10]: the “minimum inhibitory concentration (MIC in μM) relative to AmphB” value in the data set with C. gatti (4th value in brackets), in the data set on C. glabrata (2nd value in brackets), with C. albicans (1st value in brackets) and with C. neoformans (3rd value in brackets) was over 426 µM throughout. Also, the “activity in brain and lung tissue” value in the data set with Cryptococcus neoformans is given as “negligible activity”.
